Assay results reported in patent US9498495B2, “Methods for in vitro differentiation of TH-17+ cells” (New York University, priority 2008, dated 2016).

Legend:
Assay type in all cases: cell-based, human
[1] = tested on: memory CD45RO+CD25−CCR6+CD4+ T cells; assay: IL-17 production in sorted adult blood memory CD4+ T cells cultured with or without IL-1β in serum-containing media (intracellular staining); details: day 6
Protocol: (§1) Blood samples were obtained from the New York Blood Center. Mononuclear cells were prepared from buffy coats of healthy adult donors or from cord blood on FicollPAQUE gradients. CD4^+ T cells were isolated on an autoMACS Pro using Miltenyi bead depletion of CD14^+ and CD25^+ cells followed by positive selection of CD4^+ cells. Cord blood CD4^+ T cells were >97% pure and 100% CD45RA^+ and were used as such for initial transduction experiments. Adult CD4^+ T cell subsets and naive cord blood CD4^+ T cells were further purified respectively as CD3^+CD4^+CD25^−CD45RO^−/+ and CD3^+CD4^+CD25^−HLA-DR^−CD45RA^+ by cell sorting on a FACSAria.
(§2) Cells were cultivated in either RPMI1640 (Invitrogen) supplemented with 10% fetal bovine serum (Hyclone), penicillin-streptomycin, 2 mM glutamine, 10 mM HEPES, 1 mM pyruvate and 0.1 mM non-essential amino acids or serum-free XVIVO-20 (Lonza) supplemented with penicillin-streptomycin in a 37° C. 5% CO2 incubator. […]
(§3) For intracellular cytokine staining, cells were incubated for 5 hours with 50 ng/ml PMA (Sigma), 500 ng/ml Ionomycin (Sigma), and GolgiStop (BD). […] Flow cytometric measures were performed on a LSR II (BD Biosciences) instrument and analyzed using FlowJo software (Tree Star Inc.). […]

[2] = tested on: naive CD45RO−CD25−CCR7+ T cells; assay: IL-17 production in sorted adult blood naive CD4+ T cells cultured with or without IL-1β in serum-containing media (intracellular staining); details: day 6
Protocol: as §1, §2, §3

[3] = tested on: Cord blood CD4+ T cells transduced with RORγT; assay: IL-17 and FOXP3 expression following RORγT transduction of cord blood CD4+ T cells (intracellular staining); details: for effect on the suppression of IL-17 production induced by TGF-β: RORγT-transduced cells, with TGF-β; for increase of the proportion of IL-17-producing cells after forced expression of RORγT: cytokine 10 ng/ml
[4] = tested on: Naive cord blood CD4+ T cells; assay: Th17 cell polarization of naive cord blood CD4+ T cells in serum-free media (intracellular and surface staining: IL-17, IL-22, FOXP3, CCR6); details: for suppression of TGF-β-induced FOXP3 expression: added to TGF-β
Protocol: as §1, with “Cord blood CD4^+ T cells were >97% pure and 100% CD45RA^+ and were used as such for initial transduction experiments.” left out
(§4) Cells were cultivated in either RPMI1640 (Invitrogen) supplemented with 10% fetal bovine serum (Hyclone), penicillin-streptomycin, 2 mM glutamine, 10 mM HEPES, 1 mM pyruvate and 0.1 mM non-essential amino acids or serum-free XVIVO-20 (Lonza) supplemented with penicillin-streptomycin in a 37° C. 5% CO2 incubator. CD4^+ T cells were stimulated by addition of anti-mouse IgG magnetic beads (Pierce) previously coated with purified anti-CD3 and anti-CD28 at final concentrations of 1 bead/cell and 1 μg/ml of each antibody. […] Lentiviral supernatants were added at an MOI ranging from 1 to 10. […] For the shRNA experiment, puromycin was added at day 2 at 2 μg/ml. For polarization experiments, cells were seeded at a concentration of 5×10^5 to 10^6 cells/ml in U-bottom 96 well plates with anti-CD3/CD28 coated beads. […] For long-term experiments, cells were split as needed. […] Cells were harvested at day 6 for intracellular staining and real-time PCR analysis except where specified otherwise.
For intracellular cytokine staining, cells were incubated for 5 hours with 50 ng/ml PMA (Sigma), 500 ng/ml Ionomycin (Sigma), and GolgiStop (BD). Surface staining was performed by incubation with the corresponding fluorescently labeled antibodies for 15 min on ice. Intracellular staining was performed using the Cytofix/Cytoperm buffer set (BD). Briefly, cells were fixed and permeabilized for 30 min at room temperature and stained in permeabilization buffer for 30 min at room temperature. Flow cytometric measures were performed on a LSR II (BD Biosciences) instrument and analyzed using FlowJo software (Tree Star Inc.). Antibodies are detailed in Table 1. FOXP3 was stained using FOXP3 staining buffers (eBioscience). The present inventors used the FJK-16s antibody, which was originally reported as an anti-mouse/rat FoxP3 antibody.

[5] = tested on: Naive cord blood CD4+ T cells; assay: mRNA levels of Th17 markers (IL17, IL26, IL17F, RORC, RORA, IL23R) during Th17 cell differentiation of naive cord blood CD4+ T cells (real-time PCR); details: day 6; for IL-17F expression / IL-23R expression: cytokine alone (with IL-2)
Protocol: as §1, §4
(§5) RNA was extracted by TRIZOL (Invitrogen) and cDNA was synthesized with Superscript II (Invitrogen) and random primers. cDNA was analyzed by real-time quantitative PCR in triplicates by using iQ CYBR Green Supermix (Bio-Rad) or QuantiTect Multiplex PCR mix (Qiagen) in the iCycler Sequence Detection System (Bio-Rad). The starting quantity (SQ) of the initial cDNA sample was calculated from primer-specific standard curves by using the iCycler Data Analysis Software. The expression level of each gene was normalized to beta-actin expression level using the standard curve method. Fold changes were calculated by normalizing to the first sample of each set. Error bars were calculated based on triplicate measurements of each gene. The primer sets for real-time PCR are detailed in Table 2.

RORC = RORC expression in CD45RO− adult naive CD4+ T cells cultivated with cytokines (real-time PCR); details: cytokine alone
Protocol: as §1, with “FACSAria. […]” for “FACSAria.”
as §5, with “The expression level of each gene was normalized to beta-actin expression level using the standard curve method.” left out, “The primer sets for real-time PCR are detailed in Table 2.” left out

[6] = increasing concentration of TGF-β, day 6

IL-1β: cytokine, 10 ng/ml IL-1β (eBioscience)
increase of IL-17 production [1]: two-fold | effect on IL-17 production [2]: no effect | effect on the suppression of IL-17 production induced by TGF-β [3]: partially relieved | increase of the proportion of IL-17-producing cells after forced expression of RORγT ([3]; day 6): about two-fold | suppression of TGF-β-induced FOXP3 expression ([4]; day 6): not | IL-17F expression [5]: Some expression | IL-23R expression [5]: not

IL-6: cytokine, 10 ng/ml IL-6 (eBioscience)
effect on the suppression of IL-17 production induced by TGF-β [3]: partially relieved | increase of the proportion of IL-17-producing cells after forced expression of RORγT ([3]; day 6): about two-fold | suppression of TGF-β-induced FOXP3 expression ([4]; day 6): able to inhibit | induction of IL-17 ([4]; both IL-1β and TGF-β included, day 6): active, albeit not as strongly as IL-23 | induction of IL-17 ([4]; combined with TGF-β alone): failed to induce

TGF-β: cytokine, TGF-β1 (PeproTech)
effect on IL-17 production after forced expression of RORγT ([3]; various concentrations of TGF-β, day 6): potently suppressed | RORγT (RORC) expression (RORC): induced dose-dependent RORγT expression | CCR6 cell surface expression ([4]; TGF-β alone, day 6): induced | FOXP3 expression [4, 6]: induced | IL-22 expression [4, 6]: progressively inhibited | RORA expression [5]: slightly induced | levels of IL-26 mRNA [5]: increased with the dose | RORC expression ([5]; increasing concentrations of TGF-β): gradually induced

soluble IL-21R: neutralizing soluble IL-21R (R&D) [reference compound]
effect on IL-17 expression ([4]; IL-23+IL-1β+IL-2+TGF-β, at levels that inhibited STAT3 phosphorylation, day 6): no effect

B1: IL-23: cytokine, 10 ng/ml IL-23 (eBioscience) (protein, UniProt Q9NPF7 20-189; P29460 23-328, looked up)
Interleukin-23 subunit alpha: RAVPGGSSPAWTQCQQLSQKLCTLAWSAHPLVGHMDLREEGDEETTNDVPHIQCGDGCDPQGLRDNSQFCLQRIHQGLIFYEKLLGSDIFTGEPSLLPDSPVGQLHASLLGLSQLLQPEGHHWETQQIPSLSPSQPWQRLLLRFKILRSLQAFVAVAARVFAHGAATLSP
Interleukin-12 subunit beta: IWELKKDVYVVELDWYPDAPGEMVVLTCDTPEEDGITWTLDQSSEVLGSGKTLTIQVKEFGDAGQYTCHKGGEVLSHSLLLLHKKEDGIWSTDILKDQKEPKNKTFLRCEAKNYSGRFTCWWLTTISTDLTFSVKSSRGSSDPQGVTCGAATLSAERVRGDNKEYEYSVECQEDSACPAAEESLPIEVMVDAVHKLKYENYTSSFFIRDIIKPDPPKNLQLKPLKNSRQVEVSWEYPDTWSTPHSYFSLTFCVQVQGKSKREKKDRVFTDKTSATVICRKNASISVRAQDRYYSSSWSEWASVPCS
suppression of TGF-β-induced FOXP3 expression ([4]; day 6): able to suppress | IL-17F expression [5]: no effect | IL-23R expression [5]: induced to some extent
